Results published in PMC10909654 (The Journal of Cell Biology, 2024).

Legend:
FABP3 [1] = molecular target: T1, FABP3 (Homo sapiens, UniProt P05413); settings: 0.5 µM protein, 5 mol% DHE in donor liposomes, pH 7.2, 25 °C
FABP8 [2] = molecular target: T2, FABP8 (Homo sapiens, UniProt P02689); settings: 0.5 µM protein, 5 mol% DHE in donor liposomes, pH 7.2, 25 °C
FABP7 [3] = molecular target: T3, FABP7 (Homo sapiens, UniProt O15540); settings: 0.5 µM protein, 5 mol% DHE in donor liposomes, pH 7.2, 25 °C
T3 sequence (O15540 2-132): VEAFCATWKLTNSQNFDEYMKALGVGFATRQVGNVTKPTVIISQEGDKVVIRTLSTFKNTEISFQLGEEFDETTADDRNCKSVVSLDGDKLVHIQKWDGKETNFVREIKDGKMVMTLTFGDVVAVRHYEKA

FABP7 [4] = molecular target: T3, FABP7; test: radioligand binding, Ni bead pull-down, scintillation counting
FABP8 [5] = molecular target: T2, FABP8; test: as above; settings: 1.5 µM ligand, 150 nM protein; labelled compound; pH 7.4, 25 °C
FABP3 [6] = molecular target: T1, FABP3; test: as above; settings: 1.5 µM ligand, 150 nM protein; labelled compound; pH 7.4, 25 °C
FABP7 [7] = molecular target: T3, FABP7; test: radioligand competition against 3H-cholesterol; type: binding; settings: 1.5 µM cholesterol, pH 7.4, 25 °C, competitive
FABP8 [8] = molecular target: T2, FABP8; test: radioligand binding, Ni bead pull-down, scintillation counting; settings: 1.5 µM ligand, 150 nM protein; labelled compound; pH 7.4, 25 °C; remark: listed apart in the source
FABP3 [9] = molecular target: T1, FABP3; test: as above; settings: 1.5 µM ligand, 150 nM protein; labelled compound; pH 7.4, 25 °C; remark: listed apart in the source

T2 sequence (P02689 2-132): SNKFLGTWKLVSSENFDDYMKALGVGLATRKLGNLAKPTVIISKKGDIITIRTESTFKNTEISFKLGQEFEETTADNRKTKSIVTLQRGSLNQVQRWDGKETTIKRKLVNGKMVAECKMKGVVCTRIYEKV
T1 sequence (P05413 2-133): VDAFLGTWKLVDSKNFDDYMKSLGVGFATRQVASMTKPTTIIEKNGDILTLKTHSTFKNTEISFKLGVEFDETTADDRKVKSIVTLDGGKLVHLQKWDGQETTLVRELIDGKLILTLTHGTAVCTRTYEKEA

## CC(C)[C@@H](C)/C=C/[C@@H](C)[C@H]1CC[C@H]2C3=CC=C4C[C@@H](O)CC[C@]4(C)C3=CC[C@]12C [dehydroergosterol]
FABP3 [1]
  initial transport rate: FABP3 and FABP8 could transfer DHE as efficiently as FABP7
FABP8 [2]
  initial transport rate: FABP3 and FABP8 could transfer DHE as efficiently as FABP7
FABP7 [3]
  initial transport rate: The purified FABP7 protein promoted DHE transport

## CC(C)CCC[C@@H](C)[C@H]1CC[C@H]2[C@@H]3CC=C4C[C@@H](O)CC[C@]4(C)[C@H]3CC[C@]12C [cholesterol]
FABP7 [4]
  Kd: 3.04 ± 0.78 µM
FABP8 [5]
  relative 3H-cholesterol bound: FABP8 bound cholesterol as potently as FABP7
FABP3 [6]
  relative 3H-cholesterol bound: FABP3 showed modestly yet significantly reduced binding affinity for cholesterol

## CC/C=C\C/C=C\C/C=C\C/C=C\C/C=C\C/C=C\CCC(=O)O [docosahexaenoic acid]
FABP7 [7]; competitor 7.5 µM
  relative 3H-cholesterol bound: all the tested fatty acids could compete with ^3H-cholesterol for FABP7 binding

## CCCCCCCC/C=C\CCCCCCCC(=O)O [oleic acid]
FABP8 [8]
  relative 3H-oleic acid bound: Both FABP3 and FABP8 could bind oleic acid avidly
FABP3 [9]
  relative 3H-oleic acid bound: Both FABP3 and FABP8 could bind oleic acid avidly
FABP7 [7]; competitor 3.75-15 µM
  relative 3H-cholesterol bound: oleic acid was the most potent ligand and showed a dose-dependent competing effect

## CCCCCCCCCCCCCCCC(=O)O [palmitic acid]
FABP7 [7]; competitor 7.5 µM
  relative 3H-cholesterol bound: all the tested fatty acids could compete with ^3H-cholesterol for FABP7 binding

## CCCCC/C=C\C/C=C\C/C=C\C/C=C\CCCC(=O)O [arachidonic acid]
FABP7 [7]; competitor 7.5 µM
  relative 3H-cholesterol bound: all the tested fatty acids could compete with ^3H-cholesterol for FABP7 binding
